According to US11597708B2, “Inhibitors of heat shock factors and uses thereof” (HSF Pharmaceuticals SA, priority 2016, dated 2023):

What was measured:
[1] = Dissolution in aqueous Kleptose HPB stock solution; assay type: physicochemical; settings: 85 mg in 8.5 ml of 357 mg/ml Kleptose HPB stock solution, overnight, slow agitation, room temperature
Experimental: 1. Prepare 15 ml of a 357 mg/ml stock solution of Kleptose HPB (Roquette Pharma) in water (of which the amount not used under 2 is reserved for vehicle controls).
2. Dissolve 85 mg of compound 0115 in 8.5 ml of Kleptose stock solution by incubating the solution overnight with slow agitation (at room temperature). Over 90% of the drug substance will be dissolved after this incubation.

HepG2 = experiment: Alamar Blue viability assay; assay type: cell-based; settings: Homo sapiens, Hepatocellular, P53 Wt, 96-hour exposure
Experimental: (§1) Cultures of HeLa cells were exposed for 96 hours to different concentrations of IHSF 001, 058 and 115, and viability was assessed using an Alamar Blue assay. It is noted that this standard assay examines attached cells only. This subject will be discussed in more detail below. […] The relative cytotoxicity of the compounds appears to parallel their respective activities as inhibitors of HSF1 function (inhibition of RLuc expression in Z74 cells). We next examined the viability of different human cancer cell lines subsequent to a 96-hour exposure to compound 115 (Table 3). HSF1 was reported as being required for optimal p21 expression and for p53-mediated cell cycle arrest in response to genotoxins. Logan, I. R. et al. (2009) Nucleic Acids Res. 37: 2962-2971. […] Cell lines of different p53 status were included in the experiments in order to find out whether sensitivity to IHSF 115 was related to p53 status. […] No effect of p53 status could be discovered. It is noted that a number of additional HSF inhibitors of the present disclosure were tested and found to effectively reduce the viability of human cancer cells.

sNF96.2 = experiment: Alamar Blue viability assay; assay type: cell-based; settings: Homo sapiens, Malignant peripheral nerve sheath, P53 Wt, 96-hour exposure
Experimental: as §1

IM9 = experiment: Alamar Blue viability assay; assay type: cell-based; settings: Homo sapiens, IM-9, Multiple myeloma, P53 Wt, 96-hour exposure
Experimental: as §1

SK-N-SH = experiment: Alamar Blue viability assay; assay type: cell-based; settings: Homo sapiens, Neuroblastoma, P53 Wt, 96-hour exposure
Experimental: as §1

PEA1 = experiment: Alamar Blue viability assay; assay type: cell-based; settings: Homo sapiens, Ovarian carcinoma, P53 Mut, 96-hour exposure
Experimental: as §1

MCF-7 = experiment: Alamar Blue viability assay; assay type: cell-based; settings: Homo sapiens, MCF7, Breast, P53 Wt, 96-hour exposure
Experimental: as §1

RPMI 8266 = experiment: Alamar Blue viability assay; assay type: cell-based; settings: Homo sapiens, RPMI8266, Multiple myeloma, P53 Mut, 96-hour exposure
Experimental: as §1

A673 = experiment: Alamar Blue viability assay; assay type: cell-based; settings: Homo sapiens, Ewing’s sarcoma, P53 Mut, 96-hour exposure
Experimental: as §1

MG-63 = experiment: Alamar Blue viability assay; assay type: cell-based; settings: Homo sapiens, Osteosarcoma, P53 Mut, 96-hour exposure
Experimental: as §1

HCC1143 = experiment: Alamar Blue viability assay; assay type: cell-based; settings: Homo sapiens, Breast, P53 Mut, 96-hour exposure
Experimental: as §1

MM.1R = experiment: Alamar Blue viability assay; assay type: cell-based; settings: Homo sapiens, Multiple myeloma, P53 Wt, 96-hour exposure
Experimental: as §1

Saos-2 = experiment: Alamar Blue viability assay; assay type: cell-based; settings: Homo sapiens, Osteosarcoma, P53 Null, 96-hour exposure
Experimental: as §1

T47D = experiment: Alamar Blue viability assay; assay type: cell-based; settings: Homo sapiens, Breast, P53 Mut, 96-hour exposure
Experimental: as §1

BT-474 = experiment: Alamar Blue viability assay; assay type: cell-based; settings: Homo sapiens, Breast, P53 Mut, 96-hour exposure
Experimental: as §1

U266B1 = experiment: Alamar Blue viability assay; assay type: cell-based; settings: Homo sapiens, Multiple myeloma, P53 Mut, 96-hour exposure
Experimental: as §1

MDA-MB-231 = experiment: Alamar Blue viability assay; assay type: cell-based; settings: Homo sapiens, Breast, P53 Mut, 96-hour exposure
Experimental: as §1

sNF02.2 = experiment: Alamar Blue viability assay; assay type: cell-based; settings: Homo sapiens, Malignant peripheral nerve sheath, P53 Wt, 96-hour exposure
Experimental: as §1

MNNG/HOS = experiment: Alamar Blue viability assay; assay type: cell-based; settings: Homo sapiens, Osteosarcoma, P53 Mut, 96-hour exposure
Experimental: as §1

NCI-H460 = experiment: Alamar Blue viability assay; assay type: cell-based; settings: Homo sapiens, Lung, P53 Wt, 96-hour exposure
Experimental: as §1

MDA-MB-453 = experiment: Alamar Blue viability assay; assay type: cell-based; settings: Homo sapiens, Breast, P53 Mut, 96-hour exposure
Experimental: as §1

OV56 = experiment: Alamar Blue viability assay; assay type: cell-based; settings: Homo sapiens, Ovarian carcinoma, P53 Mut, 96-hour exposure
Experimental: as §1

CAMA-1 = experiment: Alamar Blue viability assay; assay type: cell-based; settings: Homo sapiens, Breast, P53 Mut, 96-hour exposure
Experimental: as §1

MM.1S = experiment: Alamar Blue viability assay; assay type: cell-based, human
Experimental: FIG. 5. (A) Viability of HeLa cell cultures mock-exposed (−) or exposed to the indicated concentrations of compounds 001, 058 or 115. (B) Viability of MM.1S cells mock-exposed (−) or exposed to the indicated concentrations of compound 115. Viability was assayed after 96 hours of exposure using an Alamar Blue assay.
as §1

[2] = system: multiple myeloma MM.1S cells; experiment: Analysis of mechanism of cell death in MM.1S cells; assay type: cell-based, human; settings: in contrast to HeLa cells (non-apoptotic mechanism)
HSF1-ATF1 interaction = molecular target: T1, HSF1-ATF1 interaction (Homo sapiens, UniProt Q00613); experiment: Anti-FLAG immunoprecipitation of FLAG-tagged HSF1 and WB (HSF1-ATF1 interaction); assay type: cell-based; settings: HeLa-derived line expressing FLAG-tagged HSF1, heat-treated 30 min at 43° C.
T1 construct: expressed in transfected cells; host or cells: HeLa-derived cell line stably expressing HSF1-FLAG
Text: Recruitment of HSF1 to target promoters in response to a stress is mediated by ATF1/CREB. Takii, R. et al. (2015) Mol. Cell. Biol. 35: 11-25. ATF1/CREB regulates the stress-induced HSF1 transcription complex that includes BRG1 chromatin-remodeling complex and p300/CBP. The former complex promotes an active chromatin state in the promoters, whereas p300/CBP accelerates the shutdown of HSF1 DNA-binding activity as well as stabilizes HSF1 against proteasomal degradation during recovery from stress. To assess the effects of the IHSF on the assembly of the transcription complex, use was made of a HeLa-derived cell line that stably expresses a C-terminally FLAG-tagged HSF1. Cultures were heat-treated for 30 min at 43° C. in the presence or absence of IHSF 115, extracts were prepared, and tagged HSF1 was immunoprecipitated using an anti-FLAG antibody.

T1 sequence (Q00613 whole entry): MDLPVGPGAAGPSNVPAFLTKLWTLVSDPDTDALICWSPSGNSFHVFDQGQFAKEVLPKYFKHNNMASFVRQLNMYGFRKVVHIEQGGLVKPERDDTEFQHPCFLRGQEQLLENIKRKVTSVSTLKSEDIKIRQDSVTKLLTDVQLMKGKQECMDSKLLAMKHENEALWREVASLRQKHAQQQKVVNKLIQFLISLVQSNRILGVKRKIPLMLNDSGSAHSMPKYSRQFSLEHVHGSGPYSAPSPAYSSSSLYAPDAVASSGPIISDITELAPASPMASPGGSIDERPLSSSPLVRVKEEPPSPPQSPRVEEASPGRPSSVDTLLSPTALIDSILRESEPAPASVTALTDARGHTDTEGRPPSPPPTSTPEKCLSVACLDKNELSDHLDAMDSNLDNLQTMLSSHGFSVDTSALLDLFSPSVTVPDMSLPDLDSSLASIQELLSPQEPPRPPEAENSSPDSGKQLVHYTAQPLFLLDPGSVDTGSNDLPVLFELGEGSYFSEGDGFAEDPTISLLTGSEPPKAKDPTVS

In the case of `CN(C(=O)/C=C/C1=NCCCO1)c1ncc(-c2cccnc2)s1` [IHSF 115, (E)-3-(5,6-Dihydro-4H-[1,3]oxazin-2-yl)-N-methyl-N-(5-pyridin-3-yl-thiazol-2-yl)-acrylamide], the drug substance dissolved [1] is reported as “Over 90%”, the EC50 (HepG2) is reported as 5.2 µM and the EC50 (sNF96.2) is reported as 4.2 µM. For the same molecule, the EC50 (IM9) was 2.3 µM, the EC50 (SK-N-SH) was 4 µM and the EC50 (PEA1) was 4.1 µM. The EC50 (MCF-7) was 5.2 µM, the EC50 (RPMI 8266) was 3.6 µM and the EC50 (A673) was 1.9 µM. For the same molecule, the EC50 (MG-63) was 4.6 µM, the EC50 (HCC1143) was 4.8 µM and the EC50 (MM.1R) was 1.7 µM. For the same molecule, the EC50 (Saos-2) was 8 µM, the EC50 (T47D) was 4.4 µM and the EC50 (BT-474) was 5.2 µM. The EC50 (U266B1) was 3.9 µM, the EC50 (MDA-MB-231) was 2.2 µM and the EC50 (sNF02.2) was 8.4 µM. It also gave an EC50 (MNNG/HOS) of 9.2 µM, an EC50 (NCI-H460) of 9.4 µM and an EC50 (MDA-MB-453) of 4.2 µM. The EC50 (OV56) was 6.8 µM, the EC50 (CAMA-1) was 3.5 µM and the “concentration at which complete loss of viability of MM.1S cells occurred” value (MM.1S; 96 hours exposure, Alamar Blue) was 6.25 µM. For the same molecule, the EC50 (MM.1S; Homo sapiens, MM1.S, MM.1S, Multiple myeloma, P53 Wt, 96-hour exposure) was 1.7 µM, the “concentration at which complete loss of viability of MM.1S cells occurred, in some experiments” value (MM.1S; in some experiments already) was 3.125 µM and the “mechanism of cell death of MM.1S cells” value [2] was “prominent apoptotic component”. The “HSF1-ATF1 interaction (co-immunoprecipitation, WB)” value (HSF1-ATF1 interaction) was “dramatically reduced”.
